Broadly, the GI50 is the concentration at which growth is held to half of that of the control.

Some test systems named below: UACC-62; NCI/ADR-RES; CCRF-CEM; KM12; IGROV-1; CAKI-1; SF-295; M14; NCI-H522; Malme-3M; SF-268; 786-0; A549; T47D; SW-620; NCI-H460; OVCAR-4; HT-29; ACHN; SK-OV-3.
Common to all, as to assay: DTP human tumour cell line panel, 48 h

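Grown in 96-well plates, cells were treated for 48 hours with each compound at five concentrations. Insufficient inhibition: endpoint recorded as highest concentration tested. At the GI50, growth is halved.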 Activity calls are given as the source filed them. Rule as the data show it: active = GI50 up to about 1.1 µM and inactive = higher. Starred links: 1 amine or outer side, 2 acyl side, 3 side chain; linkers in the order of their positions; H or OH if unused. Non-standard residues stand in square brackets, D forms with d. Residues, ends and D or L forms follow the SMILES beside them. X35 = C=CCC(O[*:1])C(=O)[*:2]; NMeV = CN[CH](C(=O)O)C(C)C; NMeA = CN[CH](C)C(=O)O; βAla = NCCC(=O)O

Regarding `Cc1ccc2c(=O)c(-c3nnc(NC4CCCCC4)s3)c[nH]c2n1`, the GI50 in the test on UACC-62, with NCI/ADR-RES, with CCRF-CEM, in the test on KM12, in the test on IGROV-1 and with CAKI-1 was > 100 µM (inactive) in each case. Further, the GI50 in the test with SF-295 is 81.7 µM (inactive); in the test on M14 it was > 100 µM (inactive); with NCI-H522 it was > 100 µM (inactive); with Malme-3M it was > 100 µM (inactive); in the test with SF-268, > 100 µM (inactive); in the test on 786-0, > 100 µM (inactive). In addition, the GI50 with A549 is > 100 µM (inactive); in the test on T47D, 50 µM (inactive); in the test with SW-620 it was > 100 µM (inactive); in the test on NCI-H460, > 100 µM (inactive); in the test on OVCAR-4 it was > 100 µM (inactive); with HT-29, > 100 µM (inactive). For the same molecule, the GI50 in the test with ACHN is > 100 µM (inactive).
With `COc1cc2cc(C(=O)N3CC(COS(C)(=O)=O)c4c3cc(N)c3ccccc43)[nH]c2c(OC)c1OC` (stereo unspecified), the GI50 is 0.0146 µM (active) in the test on UACC-62; 0.0123 µM (active) with NCI/ADR-RES; 0.0128 µM (active) with CCRF-CEM; 0.0194 µM (active) in the test with KM12; 0.0228 µM (active) in the test on IGROV-1; 0.0211 µM (active) in the test with CAKI-1. Also, the GI50 in the test with SF-295 was 0.0195 µM (active); in the test on M14, 0.0169 µM (active); with NCI-H522 it was 0.0146 µM (active); with SK-OV-3, 0.0444 µM (active); in the test on SF-268, 0.0188 µM (active); in the test with 786-0, < 0.01 µM (active). Besides, the concentration for 50% growth inhibition (GI50) in the test with A549 was 0.0146 µM (active); with T47D it was 0.0385 µM (active); in the test on SW-620 it was 0.0148 µM (active); in the test with NCI-H460, < 0.01 µM (active); in the test on OVCAR-4 it was < 0.0376 µM (active); in the test with HT-29, < 0.01 µM (active). The 50% growth inhibitory concentration (GI50) with ACHN was < 0.01 µM (active).
`COc1ccc2oc(C(=O)N3CC(CCl)c4ccc(N)cc43)cc2c1` (stereo unspecified): the 50% growth inhibitory concentration (GI50) with UACC-62 was 0.192 µM (active); in the test with NCI/ADR-RES it was 0.213 µM (active); in the test with CCRF-CEM, 0.36 µM (active); in the test on KM12, 0.242 µM (active); with IGROV-1 it was 0.213 µM (active); in the test on CAKI-1, 0.185 µM (active). The GI50 was 0.344 µM (active) in the test with SF-295; 0.805 µM (active) in the test on M14; 0.0189 µM (active) in the test on NCI-H522; 1.35 µM (inactive) in the test with SK-OV-3; 0.354 µM (active) in the test with SF-268; 0.133 µM (active) with 786-0. Also, the concentration for 50% growth inhibition (GI50) in the test on A549 is 0.303 µM (active); in the test on T47D, 0.31 µM (active); in the test on SW-620, 0.348 µM (active); in the test with NCI-H460, 0.203 µM (active); in the test on OVCAR-4 it was 0.286 µM (active); with HT-29, 0.357 µM (active). The GI50 with ACHN was 0.147 µM (active).
With `COc1cc2c(cc1O)-c1c(OC)c(O)cc3c1C(C2)N(C)CC3` (stereo unspecified), the GI50 with UACC-62, in the test with NCI/ADR-RES, in the test with CCRF-CEM, in the test with KM12, with IGROV-1 and with CAKI-1 was > 100 µM (inactive) each time. For the same molecule, the GI50 in the test on SF-295, with M14, with NCI-H522, in the test on SK-OV-3, with SF-268 and in the test on 786-0 was > 100 µM (inactive) each time. The GI50 in the test with A549, in the test on T47D, in the test on SW-620, in the test with NCI-H460, in the test on OVCAR-4 and in the test with HT-29 was > 100 µM (inactive) in each case. Besides, in the test with ACHN, the GI50 was > 100 µM (inactive).
As to `CCOP(=O)(OCC)/C(=C/NC(=S)c1ccncc1)C(=O)OC`, the GI50 in the test on UACC-62 was > 100 µM (inactive); in the test with NCI/ADR-RES, > 100 µM (inactive); with CCRF-CEM it was 20.6 µM (inactive); with KM12 it was > 100 µM (inactive); in the test on IGROV-1, > 100 µM (inactive); with CAKI-1 it was > 100 µM (inactive). The GI50 with SF-295, in the test on M14, with NCI-H522, in the test on SK-OV-3, with SF-268 and in the test on 786-0 was > 100 µM (inactive) each time. The GI50 in the test on A549, with T47D, in the test on SW-620, with NCI-H460, in the test on OVCAR-4 and in the test with HT-29 was > 100 µM (inactive) in each case. Also, the GI50 in the test on ACHN is > 100 µM (inactive).
As for `COc1ccc(C=C2C(=O)NC(=S)NC2=O)c2ccccc12`, the GI50 in the test with NCI/ADR-RES was 26.7 µM (inactive); with CCRF-CEM, 32.4 µM (inactive); in the test on KM12 it was 44.3 µM (inactive); in the test on IGROV-1 it was 38.3 µM (inactive); with CAKI-1 it was 50.2 µM (inactive); in the test on SF-295, 31.3 µM (inactive). Also, the GI50 was 45 µM (inactive) with M14; 47.2 µM (inactive) with NCI-H522; 37.1 µM (inactive) in the test on SK-OV-3; 34.5 µM (inactive) in the test on SF-268; 47 µM (inactive) in the test on 786-0; 32.1 µM (inactive) in the test on T47D. The GI50 in the test on SW-620 is 33.4 µM (inactive); in the test with NCI-H460, 12 µM (inactive); in the test on OVCAR-4, > 100 µM (inactive); with HT-29, 28.2 µM (inactive); with ACHN, 97.5 µM (inactive).
Consider `CCOC(=O)/C=C/CC(C)(C)CCOC(C)=O`, for which the GI50 with UACC-62, in the test with NCI/ADR-RES, with CCRF-CEM, in the test on KM12, in the test on IGROV-1 and with CAKI-1 was > 10 µM (inactive) in each case. Also, the GI50 in the test on SF-295, in the test with M14, in the test with NCI-H522, with SK-OV-3, in the test with SF-268 and in the test with 786-0 was > 10 µM (inactive) each time. The GI50 with A549, with T47D, in the test on SW-620, in the test with NCI-H460, in the test on OVCAR-4 and in the test on HT-29 was > 10 µM (inactive) throughout. In the test with ACHN, the GI50 was > 10 µM (inactive).
Consider `C=CCC1OC(=O)CCNC(=O)C(C)N(C)C(=O)C(C(C)C)N(C)C(=O)C(C(C)CC)NC(=O)C2CCCN2C1=O` (stereo unspecified) (cyclo([X35]PI[NMeV][NMeA][βAla]); configuration not given here), for which the GI50 with UACC-62 was 2.68 µM (inactive); in the test on NCI/ADR-RES, > 100 µM (inactive); with CCRF-CEM, 3.1 µM (inactive); with KM12 it was 10.8 µM (inactive); in the test with IGROV-1, 7.06 µM (inactive); in the test on CAKI-1 it was 81.5 µM (inactive). The GI50 is 4.08 µM (inactive) in the test on SF-295; 30.5 µM (inactive) in the test on M14; 16 µM (inactive) with NCI-H522; 81.1 µM (inactive) with SF-268; 4.61 µM (inactive) in the test with 786-0; 9.84 µM (inactive) in the test with A549. For the same molecule, the GI50 is 20.8 µM (inactive) in the test on T47D; 6.64 µM (inactive) with SW-620; 3.66 µM (inactive) with NCI-H460; 66.8 µM (inactive) in the test with OVCAR-4; 3.91 µM (inactive) in the test with HT-29; 18.4 µM (inactive) with ACHN.
For `COc1ccc(O)c(/C=N\Nc2ccccc2)c1`, the GI50 was 2.6 µM (inactive) in the test on UACC-62; 18.6 µM (inactive) with NCI/ADR-RES; 19 µM (inactive) in the test with M14; 2.32 µM (inactive) in the test with NCI-H522; > 100 µM (inactive) with SK-OV-3; 13.1 µM (inactive) in the test on SF-268. Moreover, the GI50 in the test on 786-0 was 32.3 µM (inactive); in the test with A549, 6.22 µM (inactive); with T47D, 0.402 µM (active); in the test with SW-620 it was 5.41 µM (inactive); in the test with NCI-H460, 4.79 µM (inactive); in the test on OVCAR-4 it was 8.45 µM (inactive). Further, the values for the GI50 with HT-29 and with ACHN were 15.6 µM (inactive) and 7.85 µM (inactive), respectively.
With `COc1cc(C2C(Cl)C(=O)N2c2ccc(Br)cc2)cc(I)c1O` (stereo unspecified), the GI50 in the test with UACC-62 was 25.5 µM (inactive); with NCI/ADR-RES, 33.5 µM (inactive); in the test with CCRF-CEM it was 26.4 µM (inactive); with KM12, 37.3 µM (inactive); in the test on IGROV-1, 1.54 µM (inactive); in the test with CAKI-1 it was 47.9 µM (inactive). The GI50 in the test with SF-295 was 35.4 µM (inactive); in the test with M14 it was 33 µM (inactive); in the test with NCI-H522 it was 18.7 µM (inactive); with SK-OV-3, 92.9 µM (inactive); in the test on SF-268, 89.1 µM (inactive); with 786-0 it was > 100 µM (inactive). Besides, the GI50 with A549 is 42.4 µM (inactive); in the test with T47D it was 23.8 µM (inactive); in the test with SW-620, > 100 µM (inactive); in the test on NCI-H460, 58.3 µM (inactive); in the test with OVCAR-4, 70.5 µM (inactive); with HT-29, 87.1 µM (inactive). The GI50 in the test with ACHN was 33.5 µM (inactive).
Take `CCCNC(=S)N/C=C1\C(=O)Nc2ccccc2C1=O`: the GI50 in the test with UACC-62, in the test on NCI/ADR-RES, in the test on CCRF-CEM, with KM12, in the test on IGROV-1 and with CAKI-1 was > 100 µM (inactive) in each case. Further, the GI50 with SF-295, in the test on M14, with NCI-H522, in the test on SK-OV-3, with SF-268 and in the test on 786-0 was > 100 µM (inactive) throughout. Also, the GI50 with A549, in the test on T47D, with SW-620, with NCI-H460, with OVCAR-4 and with HT-29 was > 100 µM (inactive) throughout. Moreover, the GI50 in the test with ACHN is > 100 µM (inactive).

The record behind these values is ChEMBL document CHEMBL1201862, “PubChem BioAssay data set” (2004).
